The values below come from ChEMBL document CHEMBL1150831, “Immunosuppressive sesquiterpene alkaloids from Tripterygium wilfordii” (2001).

The structures appear in SMILES notation. The source made the active and inactive calls. The calls are words filed in the database; no cut-off is given here.

Common to all, as to type: functional
For assay [1], the system named is PBMC. The assay can be described thus: Immunosuppressive activity in human PBMC assessed as inhibition of LPS-stimulated IL2 production at 0.3 ug/mL after 18 to 24 hrs by ELISA. For orientation: In an ELISA, binding on a coated surface is turned into a signal by an enzyme label.
For assay [2], the system named is PBMC. Nature of the assay: Immunosuppressive activity in human PBMC assessed as inhibition of LPS-stimulated IL8 production at 0.3 ug/mL after 18 to 24 hrs by ELISA.
The subject of assay [3] is PBMC. The assay can be described thus: Immunosuppressive activity in human PBMC assessed as inhibition of LPS-stimulated TNFalpha production at 0.3 ug/mL after 18 to 24 hrs by ELISA.
In assay [4] the test system is PBMC. The assay can be described thus: Immunosuppressive activity in human PBMC assessed as inhibition of LPS-stimulated IL1-beta production at 0.3 ug/mL after 18 to 24 hrs by ELISA.
Assay [5] concerns PBMC. The assay can be described thus: Immunosuppressive activity in human PBMC assessed as inhibition of LPS-stimulated IFN-gamma production at 0.3 ug/mL after 18 to 24 hrs by ELISA.
The subject of assay [6] is PBMC. Nature of the assay: Immunosuppressive activity in human PBMC assessed as inhibition of LPS-stimulated IL4 production at 0.3 ug/mL after 18 to 24 hrs by ELISA.
Assay [7] relates to PBMC. The assay can be described thus: Immunosuppressive activity in human PBMC assessed as inhibition of LPS-stimulated IL4 production at 10 ug/mL after 18 to 24 hrs by ELISA.
For assay [8], the system named is PBMC. The assay can be described thus: Immunosuppressive activity in human PBMC assessed as inhibition of LPS-stimulated IL8 production at 10 ug/mL after 18 to 24 hrs by ELISA.
The subject of assay [9] is PBMC. The assay can be described thus: Immunosuppressive activity in human PBMC assessed as inhibition of LPS-stimulated TNFalpha production at 10 ug/mL after 18 to 24 hrs by ELISA.
Assay [10] has as its system PBMC. Nature of the assay: Immunosuppressive activity in human PBMC assessed as inhibition of LPS-stimulated IL1-beta production at 10 ug/mL after 18 to 24 hrs by ELISA.
The test system of assay [11] is PBMC. Nature of the assay: Immunosuppressive activity in human PBMC assessed as inhibition of LPS-stimulated IL2 production at 10 ug/mL after 18 to 24 hrs by ELISA.
Assay [12] concerns PBMC. Nature of the assay: Immunosuppressive activity in human PBMC assessed as inhibition of LPS-stimulated IFN-gamma production at 10 ug/mL after 18 to 24 hrs by ELISA.

Usually inhibition stands for the drop in the measured response relative to a control, in per cent. `C[C@]12C=CC(=O)C=C1CC[C@@H]1[C@@H]2[C@@H](O)C[C@@]2(C)[C@H]1CC[C@]2(O)C(=O)CO` [PREDNISOLONE]: the inhibition at 0.3 µg/mL with PBMC [1] worked out at 65%; in the assay on PBMC [2], 15%; with PBMC [3] it was 52%; in the assay with PBMC [4], 68%; in the assay on PBMC [5] it was 75%; in the assay on PBMC [6], 76%.
`CC(=O)OC[C@]12[C@H](OC(C)=O)C(=O)[C@@H]3[C@@H](OC(C)=O)[C@@]14O[C@@]3(C)COC(=O)c1cccnc1CC[C@@](C)(O)C(=O)O[C@@H]([C@H](OC(C)=O)[C@@H]2OC(C)=O)[C@]4(C)O`: the inhibition result with PBMC [7], in the assay with PBMC [8], in the assay on PBMC [9], in the assay on PBMC [10], with PBMC [11] and in the assay with PBMC [12] was “inactive” each time.
As for `CC(=O)OC[C@]12[C@H](OC(C)=O)[C@H](OC(C)=O)[C@@H]3[C@@H](OC(C)=O)[C@@]14O[C@@]3(C)COC(=O)c1cccnc1CC[C@H](C)C(=O)O[C@@H]([C@H](OC(=O)c1ccco1)[C@@H]2OC(C)=O)[C@]4(C)O`, the inhibition at 10 µg/mL with PBMC [7] was -53%; in the assay with PBMC [8], 7%; in the assay with PBMC [9], 64%; in the assay with PBMC [10], 53%; with PBMC [11], 22%; with PBMC [12] it was 4%.
Take `CC(=O)OC[C@]12[C@H](OC(C)=O)[C@H](OC(C)=O)[C@@H]3[C@@H](OC(C)=O)[C@@]14O[C@@]3(C)COC(=O)c1cccnc1CC[C@H](C)C(=O)O[C@@H]([C@H](OC(=O)c1ccccc1)[C@@H]2OC(C)=O)[C@]4(C)O`: the inhibition at 10 µg/mL in the assay on PBMC [7] stood at 16%; with PBMC [8], 1%; in the assay with PBMC [9] it was 79%; in the assay with PBMC [10] it was 64%; in the assay with PBMC [11], 67%; in the assay on PBMC [12] it was 41%.
Turning to `CC(=O)OC[C@]12[C@H](OC(C)=O)[C@H](OC(C)=O)[C@@H]3[C@@H](OC(C)=O)[C@@]14O[C@@]3(C)COC(=O)c1cnccc1C(C)C(C)(O)C(=O)O[C@@H]([C@H](OC(=O)c1ccccc1)[C@@H]2OC(C)=O)[C@]4(C)O` (stereo not given in full) [HYPOGLAUNINE C], the inhibition at 10 µg/mL with PBMC [7] was 51%; in the assay with PBMC [8], -26%; in the assay with PBMC [9], -28%; in the assay on PBMC [10], 2%; in the assay on PBMC [11] it was 57%; in the assay with PBMC [12] it was 20%.
